In patent US6165732A, “Method for identifying apoptosis modulating compounds” (Washington University, priority 1998, dated 2000):
Like-named read-outs stand apart in the source and are kept apart here.

Tests used:
[1] = Low pH channel formation after addition of protein to an established planar lipid bilayer; format: biochemical; conditions: for initial current (direction): 450/150 mM KCl cis to trans, pH 4.0, spontaneous (OS); for conductance of initial channel: pH 4.0, initial current; for effect of shifting pH on conductance and selectivity: pH 4.0 to 7.0; for PK/PCl after pH shift to 7.0: pH 7.0 after insertion at pH 4.0; for ion selectivity of channel: low pH insertion
Excerpt: (§1) The Bax and Bcl-2 polypeptides used in the ion channel studies reported herein were recombinant murine Bcl-2 and Bax polypeptides lacking the C-terminal signal-anchor membrane targeting sequence (Bcl-2ΔC21, amino acids 1-218 of SEQ ID NO:9 and BaxΔC19, amino acids 1-173 of SEQ ID NO:6). These deletion derivatives, also referred to herein as BaxΔTM and Bcl-2ΔTM, were used to avoid any interference of the C-terminal signal-anchor membrane targeting sequence with the capacity of internal α helices to mediate insertion into artificial lipid bilayers.
(§2) Planar lipid bilayers were prepared from soybean lipids by chloroform extraction of Azolectin Type II (10-20% choline, 80-90% negatively charged lipids) (Sigma). The chloroform was removed with a stream of nitrogen and the lipids stored under N2 until dissolved in decane at 30 mg/ml. This preparation was then stored under nitrogen. The 0.25 mm orifice of a polystyrene cuvette (Warner Instruments) was pretreated with 2 μl of the decane lipid solution and the solvent allowed to evaporate. The cuvette was then placed into a bilayer chamber and connected to Bilayer Clamp BC525-a (Warner Instruments) by Ag/AgCl electrodes via agar salt bridges. Data were collected using an Axoscope (Axon Instruments Software), archived on video tape using a Neurocorder DR-484 (Neuro Data Instruments), and analyzed using Origin (Microcal) and pClamp6 (Axon Instruments Software). Slope conductance was calculated by the method of least squares and the variance is given. Ion selectivities were calculated using the reversal potential and the Goldman equation. The reversal potential means the zero-current potential of a bilayer membrane. The reversal potential is zero with no ion gradient and the magnitude of the potential in the presence of an ion gradient reflects the cation versus anion selectivity of the bilayer.
Bilayers were formed by spreading with a polished glass rod and allowed to thin to a capacitance of 0.4 μF/cm^2 at which point the noise was typically 0.2 pA and the leak conductance was 20 pS. The salt concentrations were initially 450 mM KCl in the cis chamber (1.0 ml) and 150 mM KCl in the trans chamber (0.5 ml) to permit identification of spontaneous initial currents. Outward (positive) currents were defined as K^+ moving cis-to trans. All solutions were buffered to pH 4.0 with 10 mM K-acetate. BaxΔTM or Bcl-2ΔTM (approx. 1 μg) was added to the cis chamber with mixing. After initial currents were identified the soluble protein was usually removed by exchanging the cis chamber contents with aliquots of buffer.

[2] = Channels in planar lipid bilayers at pH 7.0 after fusion with unilamellar proteoliposomes containing the protein; format: biochemical; conditions: for conductance pattern / ion selectivity of channel / rectification: neutral pH; for ion selectivity of channel: proteoliposome fusion; for rectification: symmetrical KCl
Excerpt: as §1, §2
Proteoliposomes for fusion with a planar lipid bilayer were prepared as follows. Purified protein (0.25 μg) was added to […] lipid (Azolectin) in 20 μl of KCl buffer (150 mM KCl, 10 mM HEPES, pH 7.0). This mixture was placed into a dialysis bag with a molecular weight cutoff of 12 KDa. After 16 hours dialysis in 3000 volumes of 150 mM KCl (10 mM HEPES, pH 7.0) the proteoliposome suspension was removed and placed on ice for immediate use. The bilayer was set up with a 450:150 cis to trans KCl gradient to identify the ion selectivity of the initial currents. Fusion was initiated by adding 5-20 μl of lipid vesicles (only 5-20 ng of protein) to the cis bilayer chamber with mixing. Non-fused proteoliposomes were removed from the compartments and solutions exchanged as described above.
Control bilayers containing Bcl-2 or Bax channels were prepared by fusion of unilamellar proteoliposomes with incorporated Bcl-2ΔTM or BaxΔTM with an established planar bilayer as described in Example 4. Test bilayers containing Bcl-2 channels were prepared in the same manner to which an 11 mer Bax peptide (SEQ ID NO:1) with known death agonist activity was added at 20, 50 or 100 μM. A voltage of 80 mV was applied to each control and test channel and its conductance measured for a period of 12 to 16 seconds and the frequency that each channel was measured at a particular conductance level (pA) was calculated. The data, representing about 500,000 measurements, are shown as histograms in FIGS. 8A-8E. […]

[3] = cited from earlier work
[4] = cited from earlier work; remark: listed apart in the source
[5] = Cl- release (efflux) from KCl loaded synthetic lipid vesicles as a function of pH; format: biochemical
Description: This example illustrates that Bax and Bcl-2 induce the release of ions from synthetic lipid vesicles.
Unilamellar vesicles composed of 40% 1,2 dioleoyl phosphatidyl glycerol and 60% 1,2 dioleoyl phosphatidyl choline (Avanti Polar Lipids) were prepared in 100 mM KCl, 2 mM CaNO3 and 10 mM dimethylglutarate, pH 5.0 as previously described (Peterson et al., J. Membr. Biol. 99:197-204, 1987). The resulting liposomes were diluted 200-fold to a concentration of 0.05 mg/ml in 100 mM KNO3, 2 mM CaNO3 and 10 mM dimethylglutarate which was titrated to pH 3.5, 4.0, 4.5, 5.0, 5.5 or 6.0 with NaOH or with acetic acid. BaxΔC19 and Bcl-2ΔC21 were added at a concentration of 500 ng/ml and Cl^- efflux was measured with a Cl^- combination ion selective electrode (Accumet). Triton X-100 (0.1%) was added to release the total encapsulated Cl^- at the times indicated by the arrows in FIG. 1. The total amount of Cl^- released was quantitated by a calibration curve produced by successive additions of 25 μM KCl.

[6] = 450/150 mM KCl gradient, pH 7.0
[7] = planar lipid bilayers, pH 7.0 (Antonsson et al.)
[8] = physiological pH (Antonsson et al.)
[9] = pH 4.0, same quantities of each protein
[10] = stated as behaviour like Bax / Bcl-2 (criterion)

## Bax: recombinant murine Bax polypeptide lacking the C-terminal signal-anchor membrane targeting sequence (amino acids 1-173 of SEQ ID NO:6)
[1]
  initial current (direction): initial, inward current
  effect of shifting pH on conductance and selectivity: altered the conductance and selectivity of Bax
  PK/PCl after pH shift to 7.0: 0.5
[1]; 450/150 mM KCl
  conductance of initial channel: 22 (s.d. 5, n=5) pS
[1]; 450/150 mM KCl, listed as BaxΔTM
  conductance of initial channel: 22 pS
[1]; 450/150 mM KCl, pH 4.0, listed as BAXΔTM
  time to appearance of initial current: ≤ 10 min
[1]; 450/150 mM KCl, pH 4.0, listed as BaxΔTM
  time to appearance of initial current: Four
[1]; +40 mV, pH 4.0
  duration of channel transition: ~ 5 mins
[1]; +40 mV, transition, pH 4.0
  current level, C and OS: 0 pA
  current level, O1: 2.36 pA
  current level, O1+2: 8.81 pA
  current level, O2: 6.4 pA
[1]; -40 mV, transition, pH 4.0
  current level, C: 0 pA
  current level, O1: -10.9 pA
  current level, O1+2: -30.5 pA
  current level, OS: -2.14 pA
[1]; hyperpolarization to -40 mV, pH 4.0
  voltage dependence: increased the channel activity
[1]; pH 4.0
  slope conductance of final stable channel: 0.731±0.01 nS
[1]; pH 4.0, from reversal potential
  PK/PCl (Cl- selectivity, average over current levels): 0.10
[1]; pH 7.0
  current-voltage relation: linear with voltage
[1]; pH 7.0, 450/150 mM KCl gradient
  conductance after pH shift to 7.0: 0.329±0.002 nS
[1]; pH 7.0, both chambers 150 mM KCl
  conductance after pH shift to 7.0: 0.302±0.008 nS
[1]; planar bilayers
  time from initial appearance to channel progression: 2 to 4 min
  ion selectivity of channel: consistent anion selectivity
[1]; planar bilayers, listed as BAX
  ion selectivity of channel: Cl^- selective
[2]; 80 mV, no peptide
  less frequent conductance peak: about 65 pA
[2]; [6]
  PK/PCl from reversal potential: 0.32
  initial current (direction): inward (PK <PCl) current
[2]; -70 mV, symmetrical 150 mM KCl
  duration of periodic channel closing: 20 to 30 ms
[2]
  conductance pattern: simpler single channel conductance pattern
  ion selectivity of channel: Cl^- -selective
  rectification: Mild outward rectification
[2]; symmetrical 150 mM KCl, pH 7.0
  channel conductance at negative voltages: 1.5 (sd 0.3, n=3) nS
[3]; [7]
  ion selectivity: cation selective
  permeability ratio of Na+ to Cl-: about 2.1
[3]; planar lipid bilayers, pH 7.0 (Antonsson et al.), listed as BaxΔTM
  ion selectivity: slightly cation selective
[4]; [8]
  pore-forming activity in liposomes: intrinsic pore-forming activity
[5]
  highest pH with retained activity (ion release from liposomes): ≤ 5.5 pH
[5]; 500 ng/ml, FIG. 1A
  pH of maximum release of Cl-: 4.0-4.5 pH
[5]; pH 3.5
  Cl- release from KCl loaded lipid vesicles: 41%
[5]; pH 3.5, 500 ng/ml, FIG. 1A
  release of Cl-, decrease from maximum: 50%
[5]; [9]
  Cl- release from KCl loaded lipid vesicles: 75%
[5]; pH 5.0
  Cl- release from KCl loaded lipid vesicles: 41%
[5]; pH 5.0, 500 ng/ml, FIG. 1A
  release of Cl-, decrease from maximum: 50%
[5]; pH 5.5, 500 ng/ml, FIG. 1A
  release of Cl-, decrease from maximum: less than 10%
[5]; pH 6.0 shifted to pH 4.0, FIG. 1C
  release of Cl- on pH shift: a rapid release of Cl^-
[5]; [10]
  ratio of channel indicator release at pH 3.5 and pH 4.0 (R3.5/4.0): less than 1

B1: Bcl-2: recombinant murine Bcl-2 polypeptide lacking the C-terminal signal-anchor membrane targeting sequence (amino acids 1-218 of SEQ ID NO:9) (protein)
chain: MAQAGRTGYDNREIVMKYIHYKLSQRGYEWDAGDADAAPLGAAPTPGIFSFQPESNPMPAVHREMAARTSPLRPLVATAGPALSPVPPCVHLTLRRAGDDFSRRYRRDFAEMSSQLHLTPFTARGRFATVVEELFRDGVNWGRIVAFFEFGGVMCVESVNREMSPLVDNIALWMTEYLNRHLHTWIQDNGGWDAFVELYGPSMRPLFDFSWLSLKTLL
[1]
  initial current (direction): initial outward
  effect of shifting pH on conductance and selectivity: not Bcl-2
  PK/PCl after pH shift to 7.0: 6.5
[1]; 450/150 mM KCl, pH 4.0
  PK/PCl of initial current: 3.9
  magnitude of initial current: 0.85±0.06 pA
  time to appearance of initial current: ≤ 5 min
[1]; 450/150 mM KCl
  conductance of initial channel: 80.3±0.06 pS
[1]; 450/150 mM KCl, listed as Bcl-2ΔTM
  conductance of initial channel: 80 pS
[1]; pH 4.0
  duration of initial state: 2 to 5 min
  slope conductance of final stable channel: 1.90±0.06 nS
[1]; pH 4.0, with brief closures
  duration of channel open periods: 5 to 10 s
[1]; pH shifted to 7.0, FIG. 4E
  conductance of large pore after pH shift to 7.0: 2.14±0.04 nS
[1]; planar bilayers
  ion selectivity of channel: mild cation selectivity
[2]; 450/150 mM KCl gradient, FIG. 5A
  single channel current: 5 pA
[2]; [6]
  PK/PCl from reversal potential: 2.4
  initial current (direction): outward (K^+) current
[2]
  conductance pattern: complex multichannel conductance pattern
  ion selectivity of channel: K^+ -selective
  rectification: no rectification
[2]; symmetrical 150 mM KCl
  voltage dependence of open channel current: linear
[2]; symmetrical 150 mM KCl, FIG. 5C
  hyperpolarization beyond which a channel closure occurs: more than -70 mV
[2]; symmetrical 150 mM KCl, pH 7.0
  slope conductance: 1.08 (s.d. 0.10, n=5) nS
[3]; lipid bilayers, physiological pH (Schendel et al.)
  primary channel conductance: 18±2 pS
[3]; pH 5.4 (Schendel et al.)
  ion selectivity: cation selective
[3]; planar lipid bilayers, physiological pH
  multiple conductance states: multiple channel conductance states
[4]; pH above 5.5
  pore forming activity in lipid vesicles: little or no detectable pore forming activity
[4]; pH values below 5.5
  insertion into synthetic lipid vesicles: insert into synthetic lipid vesicles at pH values below 5.5
[4]; [8]
  antagonism of BaxΔTM pore-forming activity in liposomes: antagonized
[5]; by pH 5.0, 500 ng/ml, FIG. 1B
  inactivation of Cl- release: complete inactivation
[5]; pH 3.5
  Cl- release from KCl loaded lipid vesicles: 81%
  relative activity of Bcl-2 versus Bax (Cl- release): twice as active as Bax
[5]; [9]
  Cl- release from KCl loaded lipid vesicles: 75%
[5]; pH 5.0
  Cl- release from KCl loaded lipid vesicles: 7%
[5]; pH 5.0 shifted to 4.0, FIG. 1D
  release of Cl- on pH shift: activated the release of Cl^-
[5]; [10]
  ratio of channel indicator release at pH 3.5 and pH 4.0 (R3.5/4.0): about 1.0
  ratio of indicator release at pH 4.0 and 5.0 (R4.0/5.0): greater than 7.0
